One series deals with SLC51B. Details: method as in Niu et al., 2019. Particulars: rifampin (PXR ligand), human and monkey hepatocytes; ref Niu et al., 2019; cited from earlier work.
In another series the test system is CYP1A1. Put plainly: in vitro. Particulars: human. The procedure: (§1) Cryopreserved human hepatocytes were quickly thawed at 37°C and then transferred into hepatocyte thawing medium. Cells were pelleted at 100 × g for 10 min and then resuspended in hepatocyte complete plating medium (CP medium). The cells were then seeded at 65,000 cells per well in 96-well collagen I coated plates. After cell attachment (4–6 h post-seeding), CP medium was exchanged for ice-cold complete incubation medium (HI medium) containing BD Matrigel™ at the concentration of 0.25 mg/ml. The cells were then incubated overnight at 37°C in a humidified 5% CO2 incubator. […] Cell death or loss of adhesion of hepatocytes during or after treatment were examined by microscopy.
A RNeasy 96 Kit (Qiagen) was used to extract the total cellular RNA from sandwich cultured hepatocytes in 96-well plates following the manufacturer's instructions. A total volume of 200 μL RNA was obtained via the column elution provided in the RNeasy kit. Five μL RNA extraction was mixed with TaqMan® Fast Virus 1-Step Master Mix (Life Technologies) in a final reaction volume of 20 μL and qRT-PCR was achieved using a QuantStudio 6 Flex Real-Time PCR System (Life Technologies), following the manufacturer's instructions. β-actin mRNA expression in the SCHH was used as a house-keeping gene for the normalization of target gene expressions. The mRNA levels in SCHH treated with AhR or CAR activators were expressed by a fold change, compared to the gene expressions without the treatment. The 2^−ΔΔCt method ([Livak and Schmittgen, 2001]) was used to analyze the relative changes in gene expression, where the Ct is the cycle number at which the fluorescence in the reaction crosses the preset arbitrary threshold; the ΔCt represents the difference between the Ct target and reference and the ΔΔCt is the difference between the ΔCt of the test and the ΔCt of the preassigned control. Gene expression for each condition is expressed as a fold-change of mean ± standard deviation (SD) from three independent donors (each performed in triplicate). All primer and probe sets were purchased from Life Technologies (Table 2). […]

The next series concerns CYP3A4. Put plainly: in vitro. Particulars: human. The method, then: as §1
A RNeasy 96 Kit (Qiagen) was used to extract the total cellular RNA from sandwich cultured hepatocytes in 96-well plates following the manufacturer's instructions. A total volume of 200 μL RNA was obtained via the column elution provided in the RNeasy kit. Five μL RNA extraction was mixed with TaqMan® Fast Virus 1-Step Master Mix (Life Technologies) in a final reaction volume of 20 μL and qRT-PCR was achieved using a QuantStudio 6 Flex Real-Time PCR System (Life Technologies), following the manufacturer's instructions. β-actin mRNA expression in the SCHH was used as a house-keeping gene for the normalization of target gene expressions. The mRNA levels in SCHH treated with AhR or CAR activators were expressed by a fold change, compared to the gene expressions without the treatment. […] Gene expression for each condition is expressed as a fold-change of mean ± standard deviation (SD) from three independent donors (each performed in triplicate). All primer and probe sets were purchased from Life Technologies (Table 2). When concentration-dependent induction observed, the in vitro induction mRNA data were fitted using the sigmoid 3-parameter equation in GraphPad Prism (La Jolla, CA) to estimate the in vitro concentration of inducer that produced half the maximum induction values (EC50).

For the next series, the system named is UGT1A1. As to the kind of experiment: gene induction in sandwich-cultured human hepatocytes (qRT-PCR). Particulars: human, sandwich-cultured human hepatocytes (SCHH). The procedure: as §1
A RNeasy 96 Kit (Qiagen) was used to extract the total cellular RNA from sandwich cultured hepatocytes in 96-well plates following the manufacturer's instructions. A total volume of 200 μL RNA was obtained via the column elution provided in the RNeasy kit. Five μL RNA extraction was mixed with TaqMan® Fast Virus 1-Step Master Mix (Life Technologies) in a final reaction volume of 20 μL and qRT-PCR was achieved using a QuantStudio 6 Flex Real-Time PCR System (Life Technologies), following the manufacturer's instructions. β-actin mRNA expression in the SCHH was used as a house-keeping gene for the normalization of target gene expressions. The mRNA levels in SCHH treated with AhR or CAR activators were expressed by a fold change, compared to the gene expressions without the treatment. The 2^−ΔΔCt method ([Livak and Schmittgen, 2001]) was used to analyze the relative changes in gene expression, where the Ct is the cycle number at which the fluorescence in the reaction crosses the preset arbitrary threshold; the ΔCt represents the difference between the Ct target and reference and the ΔΔCt is the difference between the ΔCt of the test and the ΔCt of the preassigned control. Gene expression for each condition is expressed as a fold-change of mean ± standard deviation (SD) from three independent donors (each performed in triplicate). All primer and probe sets were purchased from Life Technologies (Table 2). When concentration-dependent induction observed, the in vitro induction mRNA data were fitted using the sigmoid 3-parameter equation in GraphPad Prism (La Jolla, CA) to estimate the in vitro concentration of inducer that produced half the maximum induction values (EC50).
Background: In qPCR the cycle at which signal appears reflects the starting amount.

The next series relates to SLC10A1 (NTCP). The description is as above. It is filed as cell-based. The conditions noted are these: SCHH, 3 days, highest concentration treated.

Experimental for SLC10A1 (NTCP): A RNeasy 96 Kit (Qiagen) was used to extract the total cellular RNA from sandwich cultured hepatocytes in 96-well plates following the manufacturer's instructions. A total volume of 200 μL RNA was obtained via the column elution provided in the RNeasy kit. Five μL RNA extraction was mixed with TaqMan® Fast Virus 1-Step Master Mix (Life Technologies) in a final reaction volume of 20 μL and qRT-PCR was achieved using a QuantStudio 6 Flex Real-Time PCR System (Life Technologies), following the manufacturer's instructions. β-actin mRNA expression in the SCHH was used as a house-keeping gene for the normalization of target gene expressions. The mRNA levels in SCHH treated with AhR or CAR activators were expressed by a fold change, compared to the gene expressions without the treatment. The 2^−ΔΔCt method ([Livak and Schmittgen, 2001]) was used to analyze the relative changes in gene expression, where the Ct is the cycle number at which the fluorescence in the reaction crosses the preset arbitrary threshold; the ΔCt represents the difference between the Ct target and reference and the ΔΔCt is the difference between the ΔCt of the test and the ΔCt of the preassigned control. Gene expression for each condition is expressed as a fold-change of mean ± standard deviation (SD) from three independent donors (each performed in triplicate). […] When concentration-dependent induction observed, the in vitro induction mRNA data were fitted using the sigmoid 3-parameter equation in GraphPad Prism (La Jolla, CA) to estimate the in vitro concentration of inducer that produced half the maximum induction values (EC50).

Consider `CO[C@H]1/C=C/O[C@@]2(C)Oc3c(C)c(O)c4c(O)c(c(/C=N/N5CCN(C)CC5)c(O)c4c3C2=O)NC(=O)/C(C)=C\C=C\[C@H](C)[C@H](O)[C@@H](C)[C@@H](O)[C@@H](C)[C@H](OC(C)=O)[C@@H]1C` [rifampin], for which the SLC51B induction result in the series on SLC51B is “greater than 10 fold”.

For the molecule `COc1ccc2[nH]c([S+]([O-])Cc3ncc(C)c(OC)c3C)nc2c1` (centres unmarked) [OP, Omeprazole], the 50% effective concentration (EC50) at 72 h with CYP1A1 came to 3.34 ± 1.39 µM; in the series with CYP3A4, […]; with UGT1A1, 28.7 ± 7.32 µM. Also, in the series on SLC10A1 (NTCP), the “SLC10A1 gene suppression (reduction)” value is “about 2 fold”.

By EC50 is commonly meant the concentration that produces a half-maximal response.

The record behind these values is paper PMC7859440, “Transporter Gene Regulation in Sandwich Cultured Human Hepatocytes Through the Activation of Constitutive Androstane Receptor (CAR) or Aryl Hydrocarbon Receptor (AhR)” (Frontiers in Pharmacology, 2021).
